Patent US20090024021A1, “Methods and Systems for Using Transcranial Magnetic Stimulation and Functional Brain Mapping for Examining Cortical Sensitivity, Brain Communication, and Effects of Medication” (priority 2002, published 2009)
Values joined by “and” are separate entries in the source; they are usually repeats but may differ in a detail not shown here. Equal entries are not always repeated.

How the values were obtained:
[1] = single oral dose of 325 mg of LTG; transiently (for 3 hours); cited from earlier work
[2] = test system: left primary motor cortex; experiment: Resting motor threshold (RMT) by TMS with EMG of abductor pollicis brevis; format: in vivo, human
Protocol: Study design: We performed a randomized, double-blind, crossover trial involving two visits at least one week apart (FIG. 8). […] Serum LTG levels, RMTs, and interleaved TMS/phMRI images during both motor and then prefrontal TMS were then gathered for each subject. One week later they received LTG or placebo again, followed by identical RMT and interleaved TMS/phMRI studies.
General Procedure: After arriving at the laboratory in the early afternoon, baseline RMT was determined and baseline plasma levels of LTG were drawn. They were then given a single oral dose of 325 mg LTG or placebo. They then waited quietly for 3 hours. Three hours after taking the oral pill, RMT was determined and serum plasma levels were again drawn.
TMS: Focal TMS was delivered by a MAGSTIM Super Rapid stimulator (Magstim Co, Whitland, Dyfed, U.K) and applied through a focal figure-of-eight magnetic coil (each wing 70 mm in diameter). The optimal position of the magnetic coil for eliciting a MEP in the right abductor pollicis brevis (APB) was determined by holding the coil tangential to the scalp, and moving it in small steps over the presumed area of the left primary motor cortex at a slightly suprathreshold stimulus intensity. The coil was always held horizontally with the handle pointing backward and laterally at 45 degrees from the midline. This position was marked with a pen on a reusable latex swimming cap in order to assure constant placement of the coil throughout the visits. Stimulus intensity and threshold values were expressed as percent of the maximal stimulator output.
Resting Motor Threshold (RMT): Surface electromyographic (EMG) was recorded from the APB using 9-mm Ag—AgCl electrodes in a belly-tendon montage. The placement of electrodes on the thumb and hand was marked with a pen for exact re-placement in consecutive visits on the same day. The raw EMG signal was amplified by a factor of 100 gain and band-pass filtered, […] with a High Performance Band pass Filter Model V-7548 (LAB Linc. Co). The EMG was recorded on a G3 Macintosh with MacCRO (version 2.1).
RMT was determined in the resting APB in 4 steps: In step one and step three, thresholds were approached from a slightly suprathreshold intensity by reducing the stimulus intensity in 1% steps with a 5 sec interval between pulses, whereas in steps two and four, thresholds were approached from a slightly subthreshold intensity by increasing the stimulus intensity. RMT was defined as the first intensity that produced a MEP of greater than 50 μV in 3 out of 6 trials in the resting target muscle. A mean RMT for baseline or after medication was calculated by averaging the four values. Determination of the RMT using this technique usually lasted 30 minutes.
The percent change of RMT=100[(post-dose RMT−pre-dose RMT)/pre-dose RMT]. Paired Student's t tests (two tailed) were performed for the percent change of RMT between LTG and placebo. Wilcoxon nonparametric tests were performed for the number of active voxels in the region of interests (ROI) between LTG and placebo. We performed Pearson correlations between the percent change of RMT and the change of active voxel number. Two-way analysis of variance (ANOVA) was performed for % BOLD signal change in the different intensity stimulation and the different medication conditions. All statistical analyses were performed using SPSS 10.0 (Statistical Product and Service Solutions Inc, Chicago Ill.).

Nc1nnc(-c2cccc(Cl)c2Cl)c(N)n1 [LTG, Lamotrigine]
serum concentrations after single oral dose [1]: equal to steady state levels at clinically relevant chronic doses
RMT Post-3 hours ([2]; LTG visit, 3 hours after single oral dose of 325 mg LTG, individual subjects 1-12): 75.25% of machine maximum output (Magstim) and 66.25% of machine maximum output (Magstim) and 66.50% of machine maximum output (Magstim) and 99.00% of machine maximum output (Magstim) and 55.25% of machine maximum output (Magstim) and 100.00% of machine maximum output (Magstim) (2×) and 101.00% of machine maximum output (Magstim) (2×) and 64.50% of machine maximum output (Magstim) and 68.25% of machine maximum output (Magstim) and 95.25% of machine maximum output (Magstim)
RMT Post-3 hours, mean ([2]; LTG visit, 3 hours after single oral dose of 325 mg LTG, mean of 12 subjects): 82.69% of machine maximum output (Magstim)
RMT % Change from baseline ([2]; LTG visit, post-dose 3 hours vs pre-dose same day, individual subjects 1-12): 8.27% and 28.02% and 7.26% and 30.26% and 1.38% and 3.63% and 26.10% and 19.53% and 8.86% and 15.76% and 12.81% and 16.87%
RMT % Change from baseline, mean ([2]; LTG visit, post-dose 3 hours vs same day baseline, mean of 12 subjects, placebo 0.6%): 14.9%
TMS resting motor threshold compared with placebo ([2]; all 12 subjects, day subjects received LTG): significant increase
